Laboratory results from patent US11974551B2, “L-serine compositions, methods and uses for treating neurodegenerative diseases and disorders” (priority 2011, dated 2024).
Entries after “also recorded” stand apart in the source; their conditions may differ.

Legend:
MRC-5 cells [1] = assay: Acridine orange/ethidium bromide dual-staining of cells; type: cell-based, human; settings: 500 μM BMAA, 23 hours
Protocol: MRC-5 cells were incubated in the presence and absence of 500 μM BMAA for 23 hours. After removing the medium, the cells were rinsed once with warm PBS and incubated in a solution of AO/EB then visualized using fluorescent microscopy as described previously (Tang, et al., Phytother Res 25, 417-423 (2010)).

SH-SY5Y cells [2] = assay: Annexin V binding (apoptosis) by flow cytometry; type: cell-based, human
Protocol: Late-stage apoptosis or necrosis was measured by simultaneous staining with propidium iodide and Annexin V using the BD Pharmingen™ Annexin V—FITC apoptosis detection kit and flow cytometry performed as described previously (Dunlop, et al., Biochem J 435, 207-216 (2010)).

Drosophila fruit flies = assay: Fruit fly feeding: mortality after three days; type: in vivo, Drosophila melanogaster; settings: media with 25 mM BMAA, after three days
Protocol: Preliminary studies show the ability of L-Serine to prevent misincorporation of BMAA into proteins. In a series of feeding experiments, Drosophila fruit flies were fed four different types of media: 1) standard fruit fly media with 0 mM BMAA (control), 2) media enriched with 25 mM L-Serine, 3) media with 25 mM BMAA added, and 4) media with both 25 mM BMAA and 25 mM L-Serine added for three days of feeding. Misincorporation of BMAA into proteins was then analyzed using triple quadrupole LC/MS/MS and Orbital Trap LC/MS/MS.
Equally interesting is the analysis of the protective value of L-Serine on Drosophila dosed with BMAA. Fruit flies fed with BMAA enriched media (third set of blocks) suffered a 40% mortality after three days, while flies fed with Serine plus BMAA (fourth set of blocks) had no mortality (FIG. 8). These flies were rescued by L-Serine.

[3] = Radio-labeled BMAA brain entry and insertion into neuroproteins; type: in vivo; settings: tritiated and 14C-labeled BMAA, rats
Source text: Studies testing to determine if L-Serine blocks the misincorporation of radio-tagged BMAA into rodent brains are undertaken.

zebrafish [4] = assay: Zebrafish motor neuron development (fluorescent microscopy); type: in vivo, zebrafish (Dario rerio); settings: eggs injected with L-BMAA, 30 hours; motor neuron length vs control P<0.0001
Protocol: (§1) BMAA was directly injected through the chorion into the yolk, allowing it to directly compete with L-serine for incorporation into newly synthesized proteins in the developing fish. BMAA (100 mg/ml in water) or water were delivered by an automated Picospritzer pump set to deliver 5 nL per injection into the yolk ([…]) of zebrafish immediately after being fertilized. Fish were left to develop for 30 hours in standard conditions.
(§2) Surviving fish were reared in an aquarium equipped with biological filtration and temp control set at 28° C. for 3 months. BMAA-treated and control fish from the same parents were reared in the same tanks, then separated based on fluorescent tag prior to swimming assessment. After 3 months all healthy adult fish with no deformations or abnormalities were examined. Critical swimming speed was determined, defined as the maximum swimming velocity that can be sustained for a set period in a water tunnel. Water was pumped from a reservoir (EcoTech Marine MP10 VorTech® Propeller Pump with EcoSmart Driver) through 50 mm diameter tubing. […] The difference in total motor neuron length was quantitated by measuring the first ten motor neuron projections marked before the end of the yolk extension (Paquet D. et al., J. Clin. Invest. 119:1382 (2009)). […] Data was collated in GraphPad Prism (version 6 for OSX) and statistical significance calculated using a Student's T-test. […]

zebrafish [5] = assay: Zebrafish egg yolk injection: survival; type: in vivo, zebrafish (Dario rerio); settings: BMAA 100 mg/ml in water, 5 nL injected into yolk after fertilization, 30 hours; control 91%
Protocol: as §1

zebrafish [6] = assay: Zebrafish swimming performance (critical swimming speed, time to fail); type: in vivo, zebrafish (Dario rerio); settings: single yolk injection of BMAA, fish reared 3 months, compared to control fish, p<0.001
Protocol: as §1, §2

MRC-5 cells [7] = assay: Autofluorescence imaging of cells; type: cell-based, human; settings: BMAA 300 μM, 96 hours
Protocol: MRC-5 cells were incubated in DMEM supplemented with 300 μM BMAA in the presence or absence of 300 μM L-serine for 96 hours with daily medium changes. Cellular autofluorescence was visualized using an inverted fluorescent microscope (Olympus IX71) as described previously (Dunlop, et al., Biochem J 410, 131-140 (2008)).

MRC-5 cells [8] = assay: Lactate dehydrogenase (LDH) release assay; type: cell-based, human; settings: BMAA-treated cells
Protocol: (§3) Lactate dehydrogenase release from cells was determined as described previously (Tang, et al., Phytother Res 25, 417-423 (2010)).

SH-SY5Y cells [9] = assay: Lactate dehydrogenase (LDH) release assay; type: cell-based, human; settings: BMAA-treated cells
Protocol: as §3

SH-SY5Y cells [10] = assay: Incorporation of 3H-BMAA radiolabel into cell proteins with or without CHX; type: cell-based, human; settings: 3H-BMAA 31.25 nM, CHX 2 μg/ml, 16 hours
Protocol: (§4) MRC-5 cells, a human lung fibroblast cell line (passage number 14-19), and SH-SY5Y cells, a human neuroblastoma cell-line (passage number 30-32), were maintained in DMEM, or DMEM/Hams F12 respectively containing 10% fetal bovine serum (FBS), 4 mM L-glutamine, 100 U/mL penicillin, and 100 μg/mL streptomycin at 37° C. in a humidified atmosphere of 5% CO2 and 95% air. Human umbilical vein endothelial cells (HUVEC) were harvested enzymatically with type II collagenase (Sigma-Aldrich) under sterile conditions as described by Minter (Minter, et al., Thromb Haemost 67, 718-723 (1992)) and established as primary cell cultures in M199 (Trace Biosciences, Sydney, Australia) containing 20% FBS, 4 mM L-glutamine, 0.5% endothelial cell growth promoter, 100 U/mL penicillin, and 100 μg/mL streptomycin. All media were prepared with endotoxin-free water (Baxter) and filtered with Zetapor filters (Cuno Life Sciences Division). Cells were seeded at 3×10^5 cells per well in 6 well plates and allowed to adhere overnight (16 hours) before treatment.
(§5) To determine if incorporation of radiolabel into proteins was protein synthesis dependent MRC-5, SH-SY5Y and HUVEC cells were incubated with ^3H-BMAA (31.25 nM) with or without CHX 2 μg/ml for 16 hours. The amount of radiolabel present in cell proteins in the CHM-treated cultures was expressed relative to that of control cultures, which was set at 100%. […]

HUVEC = assay: as above; type: cell-based, human; settings: 3H-BMAA 31.25 nM, CHX 2 μg/ml, 16 hours
Protocol: as §4, §5

MRC-5 cells [11] = assay: Protein-bound non-labeled BMAA in hydrolysed cell proteins by triple quadrupole LC/MS/MS; type: cell-based, human; settings: BMAA 250-1000 μM with L-serine 250-1000 μM, or CHX
Protocol: After incubation with ^3H-BMAA or cold BMAA, cells were washed three times with PBS, lysed by freeze thawing in Triton-X-100 (0.1%) and cell proteins precipitated in TCA (5%). Protein pellets were washed three times with TCA (5%) and hydrolysed in boiling 6 M HCl at 110° C. for 16 hours as previously described (Mondo, et al., Mar Drugs 10, 509-520 (2012)). Protein pellets were freeze-dried and reconstituted in 20 mM HCl. Particulates were removed by centrifugation through […] membranes and the hydrolysate derivatized in AccQ·Tag (Waters Corporation, Australia). Amino acids were separated on a Waters C-18 column using a method and gradient as described previously (Mondo, et al., Mar Drugs 10, 509-520 (2012)). For recovery of radiolabel in hydrolysed samples, fractions were collected manually every minute for 40 minutes, diluted into 5 ml scintillant (Ultima Gold™ scintillant, Perkin Elmer) and disintegrations per minute (DPM) determined by LSC.
To further confirm that BMAA was present in cell proteins and incorporation was inhibited by L-serine, MRC-5 cells were incubated with a range of concentrations of BMAA (250-1000 μM) or BMAA with L-serine (250-1000 μM) and hydrolysed cell proteins were analyzed by tandem mass spectroscopy on a triple quadrupole LC/MS/MS. […]

MRC-5 cells [12] = assay: Incorporation of 3H-BMAA radiolabel into cell proteins (TCA precipitation, liquid scintillation counting); type: cell-based, human; settings: 16 hours
Protocol: MRC-5 cells were incubated with ^3H-BMAA (31.25 nM) in HBSS containing 10% FCS. After 2, 4, and 16 hours, cells were washed three times in phosphate buffered saline and lysed by freeze-thawing in Triton X-100. The protein concentration in the lysate was determined using the bicinchoninic acid assay (BCA) (Smith, et al., Anal Biochem 150, 76-85 (1985)) (and radiolabel in the cell lysate quantified by liquid scintillation counting (LSC). Cell proteins were then isolated by trichloroacetic acid (TCA) (5%) precipitation washed three times in TCA (5%) and dissolved in formic acid.
To determine if incorporation of radiolabel into proteins was protein synthesis dependent MRC-5, SH-SY5Y and HUVEC cells were incubated with ^3H-BMAA (31.25 nM) with or without CHX 2 μg/ml for 16 hours. The amount of radiolabel present in cell proteins in the CHM-treated cultures was expressed relative to that of control cultures, which was set at 100%. Parallel cultures of MRC-5 cells were incubated with ^3H-leucine (41 nM) with or without CHX 2 μg/ml under identical culture conditions and processed as before.
To examine the ability of individual amino acids to reduce incorporation or radiolabel into proteins, MRC-5 cells were incubated with ^3H-BMAA (31.25 nM) for 16 hours in the presence of individual amino acids (250 μM) and the radiolabel present in the cell proteins assessed as before. All of the 20 protein amino acids (L-isomers) were examined individually in triplicate cell cultures. […] Incorporation of radiolabel was determined relative to cells incubated in medium containing no serine. MRC-5 cells were then incubated with ^3H-BMAA (31.25 nM) for 16 hours in HBSS alone, HBSS containing all 20 protein amino acids (400 μM) or 19 protein amino acids except L-serine and the amount of radiolabel in cell protein assessed as before.

[13] = mice, single injection (Karlsson et al. 2009); cited from earlier work

CNC[C@H](N)C(=O)O [BMAA, β-methylamino-L-alanine]
morphological changes and pale cells indicative of apoptosis (MRC-5 cells [1]): increased number; also recorded: morphological changes
Annexin V staining (apoptosis) (SH-SY5Y cells [2]; 500 μM BMAA alone): increased staining; also recorded: significant increase
mortality (Drosophila fruit flies): 40%
crossing of the blood-brain barrier [3]: rapidly cross the blood-brain barrier
insertion into neuroproteins [3]: inserted into neuroproteins
motor neuron development (zebrafish [4]): truncated neurons
zebrafish viability (survival) (zebrafish [5]): 74%
swimming performance, time to fail (zebrafish [6]): significant impairment; also recorded: impairs zebrafish swimming performance
formation of autofluorescent bodies (MRC-5 cells [7]): autofluorescent bodies were evident; also recorded: Autofluorescence was observed
necrosis, LDH release (MRC-5 cells [8]): no significant changes
necrosis, LDH release (SH-SY5Y cells [9]): no significant changes

C[C@@H]1C[C@@H]([C@H](O)CC2CC(=O)NC(=O)C2)C(=O)[C@@H](C)C1 [CHX, cycloheximide]
effect on protein association of 3H-BMAA (SH-SY5Y cells [10]): inhibited
effect on protein association of 3H-BMAA (HUVEC): inhibited
effect on BMAA-induced Annexin V binding / apoptosis (SH-SY5Y cells [2]; 500 μM BMAA, co-incubation with CHX 2 μg/mL or L-serine 50 μM): abrogated; also recorded: significantly reduced
effect on incorporation of non-labeled BMAA into cell proteins (MRC-5 cells [11]): inhibited
effect on amount of 3H-BMAA radiolabel in the protein fraction (MRC-5 cells [12]; 3H-BMAA 31.25 nM, CHX 2 μg/ml, relative to no CHX): significantly reduced; also recorded: inhibition of incorporation of radiolabel into cell protein
inhibition of incorporation of 3H-leucine into proteins, compared with 3H-BMAA (MRC-5 cells [12]; 3H-leucine 41 nM, CHX 2 μg/ml): to the same extent

N[C@H](CO)C(=O)O [D-Serine, D-serine]
effect on incorporation of 3H-BMAA into protein (MRC-5 cells [12]; 3H-BMAA 31.25 nM, 250 μM D-serine): did not prevent incorporation

CNC[C@H](N)C(=O)O [^3H-BMAA]
tissue distribution pattern [13]: a distribution pattern similar to that of a protein-forming amino acid
